The record followed here is US10786690B2, “Amide derivatives of polycaffeoylquinic acids, process for producing same and uses thereof” (TEMISIS, priority 2016, dated 2020).

The subject of one test is LTB4. As to the kind of experiment: LTB4 production by NHEKs in the inflammatory state (arachidonic acid + calcium ionophore), ELISA. Format: cell-based, human. The note with it: arachidonic acid 1 μM + calcium ionophore A23187 2 h, compounds 50 μM, NDGA 2 μM, relative to induced control. As to the method: (§1) The study was carried out on Normal Human Epidermal Keratinocytes (NHEKs) (Lonza, CC-2507, origin: foreskin) in monolayer culture in Epilife medium (Invitrogen, M-EPI-500-A) containing the components of the Human Keratinocyte Growth Supplement (HKGS) mixture (Invitrogen, S-001-K) added separately, except hydrocortisone having anti-inflammatory properties.
The induction of LTB4 production having a very fast kinetics, the scheme was adapted. In this case, the inflammatory state was induced for 2 h by applying arachidonic acid (a.a./1 μM/ethanol) combined with calcium ionophore A23187 (2 μM/DMSO). Nordihydroguaiaretic acid (NDGA) was used as reference molecule (2 μM/ethanol).
(§2) The effect of the compounds was studied by applying them to the keratinocyte culture medium 2 h prior to induction of the inflammatory state as well as during induction (2 h for LTB4, 24 h for IL-8, PGE2, IL-6 and TNF-α).
(§3) Each condition was carried out in triplicate cultures and the supernatants were recovered at the end of the various treatments.
(§4) Quantification of the various inflammatory mediators was carried out with specific kits, based on a standard curve, according to the instructions provided by the kits' suppliers, R&D Systems and Cayman Chemical.
(§5) Before induction of the inflammatory state, the NHEKs were treated with the compounds and reference molecules for 2 h. The inflammatory state was then induced according to the conditions described in the methodology section, the culture supernatants were collected, and the various inflammatory mediators were quantified by the ELISA technique.
The effects of the compounds on LTB4 production are shown in FIG. 8 and are expressed as a percentage of the treatment with arachidonic acid (a.a.) combined with calcium ionophore A23187 set at 100%.

The test system of test [1] is Normal Human Epidermal Keratinocytes (NHEKs). As to the kind of experiment: Microscopic observation of NHEK cell survival 48 h after inflammatory treatment. The note with it: for Result at 48 h: cell survival: NHEK cultures 48 h after inflammatory treatment (10 ng/mL PMA + 2 μM calcium ionophore A23187), microscopic observation; for effect on cell survival / cellular protection against inflammation: NHEK cultures 48 h after inflammatory treatment, summary in words. It is filed as cell-based. As to the method:
The cells, treated and not treated by the compounds to be tested, were observed under an optical microscope 48 h after the following inflammatory treatment: 10 ng/mL PMA/H2O+2 μM calcium ionophore A23187/DMSO.
NHEKs were brought into contact or not with the compounds to be tested. After 2 h, the cells underwent or not an inflammation treatment (10 ng/mL PMA/H2O+2 μM calcium ionophore A23187/DMSO).
The cells were observed under an optical microscope 48 h after the inflammatory treatment.

For a further test, the system named is PGE2. As to the kind of experiment: PGE2 production by NHEKs in the inflammatory state (PMA), ELISA. Format: cell-based, human. Particulars: PMA 10 ng/ml 24 h, compounds 50 μM, indomethacin 10 μg/ml, relative to PMA induced control (100%). The method, then:
as §1
For the quantification of IL-8 and PGE2, the inflammatory state of the NHEKs in culture was induced by treatment with PMA (phorbol myristate acetate/10 ng/ml/H2O) for 24 h. Induction of IL-6 was achieved by treatment with PMA (10 ng/ml/H2O) combined with calcium ionophore A23187 (2 μM/DMSO) in medium containing calcium at a concentration of 0.8 mM. TNF-α secretion was induced by a combination of PMA (10 ng/ml/H2O) and calcium ionophore A23187 (2 μM/DMSO) applied for 24 h (TNF-α) in medium containing 0.06 mM calcium. The reference molecules used are dexamethasone (10 μM/H2O) and indomethacin (10 μg/ml/ethanol).
as §2, §3, §4, §5
The effect of the compounds on PGE2 production is presented in FIG. 5 and is expressed as a percentage of the PMA treatment set at 100%.

The subject of a further test is TNF-α. As to the kind of experiment: TNF-α production by NHEKs in the inflammatory state (PMA + calcium ionophore, 0.06 mM Ca2+), ELISA. Particulars: PMA + calcium ionophore A23187 24 h, compounds 50 μM, dexamethasone 10 μM, relative to induced control. It is filed as cell-based, human. As to the method: as §1
(§6) For the quantification of IL-8 and PGE2, the inflammatory state of the NHEKs in culture was induced by treatment with PMA (phorbol myristate acetate/10 ng/ml/H2O) for 24 h. Induction of IL-6 was achieved by treatment with PMA (10 ng/ml/H2O) combined with calcium ionophore A23187 (2 μM/DMSO) in medium containing calcium at a concentration of 0.8 mM. […]
as §4
(§7) Before induction of the inflammatory state, the NHEKs were treated with the compounds and reference molecules for 2 h. The inflammatory state was then induced according to the conditions described in the methodology section, the culture supernatants were collected, and the various inflammatory mediators were quantified by the ELISA technique. […]

Another test deals with IL-8. The test can be described thus: IL-8 production by NHEKs in the inflammatory state (PMA), ELISA. Format: cell-based, human. The note with it: PMA 10 ng/ml 24 h, compounds 50 μM, dexamethasone 10 μM, relative to PMA induced control (100%). As to the method:
as §1, §6, §4, §7

For a further test, the system named is IL-6. As to the kind of experiment: IL-6 production by NHEKs in the inflammatory state (PMA + calcium ionophore, 0.8 mM Ca2+), ELISA. Format: cell-based, human. The note with it: PMA + calcium ionophore A23187, 0.8 mM Ca2+, compounds 50 μM, dexamethasone 10 μM, relative to induced control. The method, then: as §1
For the quantification of IL-8 and PGE2, the inflammatory state of the NHEKs in culture was induced by treatment with PMA (phorbol myristate acetate/10 ng/ml/H2O) for 24 h. […]
as §4, §5
The effect of the compounds on IL-6 production by NHEKs in the inflammatory state is shown in FIG. 6 and is expressed as a percentage of the treatment with PMA combined with calcium ionophore A23187 (under high-calcium conditions: 0.8 mM Ca2+).
A general note: ELISA stands for enzyme-linked immunosorbent assay.

On to `CC(Cc1ccc(O)c(O)c1)C(C)Cc1ccc(O)c(O)c1` (stereo not drawn) [NDGA, Nordihydroguaiaretic acid, reference compound], for which the LTB4 production result with LTB4 is given as “very highly significantly inhibits”.

With `O=C(/C=C/c1ccc(O)c(O)c1)O[C@@H]1[C@H](O)C[C@@](O)(C(=O)O)C[C@H]1OC(=O)/C=C/c1ccc(O)c(O)c1` [PAT964, 3,4-O-Dicaffeoylquinic], in test [1], the “Result at 48 h: cell survival” value was 10% cell survival and the “effect on cell survival / cellular protection against inflammation” value was “little or no effect on cell survival”.

As to `O=C(/C=C/c1ccc(O)c(O)c1)O[C@@H]1C[C@](O)(C(=O)O)C[C@@H](OC(=O)/C=C/c2ccc(O)c(O)c2)[C@H]1O` [PAT965, 3,5-O-Dicaffeoylquinic], in test [1], the “Result at 48 h: cell survival” value came out at 10% cell survival and the “effect on cell survival / cellular protection against inflammation” value is reported as “little or no effect on cell survival”.

Regarding `O=C(/C=C/c1ccc(O)c(O)c1)O[C@H]1[C@H](O)C[C@](O)(C(=O)O)C[C@H]1OC(=O)/C=C/c1ccc(O)c(O)c1` [PAT967, 4,5-O-Dicaffeoylquinic], in test [1], the “Result at 48 h: cell survival” value turned out to be 10% cell survival and the “effect on cell survival / cellular protection against inflammation” value is listed as “little or no effect on cell survival”. Also, the PGE2 production entry with PGE2 is given as “very highly significantly decrease”.

Regarding `CCCCCCCCCCCCNC(=O)[C@]1(O)C[C@@H](OC(=O)/C=C/c2ccc(O)c(O)c2)[C@@H](O)[C@H](OC(=O)/C=C/c2ccc(O)c(O)c2)C1` [PAT1648, (2E,2′E)-((1R,2S,3R,5S)-5-(dodecylcarbamoyl)-2,5-dihydroxycyclohexane-1,3-diyl) bis(3-(3,4-dihydroxyphenyl) acrylate)], in the test on TNF-α, the TNF-α production result is “most marked effects and are more effective than dexamethasone itself”. In addition, in the test with IL-8, the IL-8 production entry is “inhibit/reduce IL-8 production to the baseline level”. Further, the IL-6 production result in the test with IL-6 was “largest decreases and are more effective than dexamethasone itself”. Further, in test [1], the “Result at 48 h: cell survival” value was “Confluent culture: 100%” and the “effect on cell survival / cellular protection against inflammation” value is on record as “strong cellular protection against inflammation”. Also, the PGE2 production result with PGE2 is “very highly significantly decrease”. The LTB4 production result in the test on LTB4 is on record as “block/decrease, in a very highly significant manner”.

Turning to `CCCCNC(=O)[C@]1(O)C[C@@H](OC(=O)/C=C/c2ccc(O)c(O)c2)[C@@H](O)[C@H](OC(=O)/C=C/c2ccc(O)c(O)c2)C1` [PAT1658, (2E,2′E)-((1R,2S,3R,5S)-5-(butylcarbamoyl)-2,5-dihydroxycyclohexane-1,3-diyl) bis(3-(3,4-dihydroxyphenyl)acrylate)], in test [1], the “Result at 48 h: cell survival” value was found to be 80% cell survival and the “effect on cell survival / cellular protection against inflammation” value is “strong cellular protection against inflammation”. In addition, in the test on PGE2, the PGE2 production entry was “very highly significantly decrease”. Also, the LTB4 production entry in the test with LTB4 is given as “block/decrease, in a very highly significant manner”.

Take `C[C@@H]1C[C@H]2[C@@H]3CCC4=CC(=O)C=C[C@]4(C)[C@@]3(F)[C@@H](O)C[C@]2(C)[C@@]1(O)C(=O)CO` [dexamethasone]: the “Result at 48 h: cell survival” value in test [1] was 10% cell survival.

Turning to `COc1ccc2c(c1)c(CC(=O)O)c(C)n2C(=O)c1ccc(Cl)cc1` [indomethacin, reference compound], in the test on PGE2, the PGE2 production entry is reported as “reduces this PGE2 production in the culture supernatants to an almost undetectable level”.
